Each block holds one compound with its values, some of them ahead of it.
Assays:
human HIF-PHD2 = biological target: T1, human HIF-PHD2 (Homo sapiens, UniProt Q9GZT9); experiment: HIF-PHD inhibition assay (fluorescence polarization), human HIF-PHD2; type: biochemical; conditions: 2-oxoglutaric acid 3.33 μmol/L
T1 construct: purchased CrystalGenomics Ltd
Summary of the method: (§1)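 Fluorescence polarization was read before and after adding enzyme, and the difference (mP value) taken as enzyme activity. The tracer carried a FAM (5′-fluoresceinamide) tag linked via aminocaproic acid.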

human HIF-PHD3 = biological target: T2, human HIF-PHD3 (Homo sapiens, UniProt Q9H6Z9); experiment: HIF-PHD inhibition assay (fluorescence polarization), human HIF-PHD3; type: biochemical; conditions: 2-oxoglutaric acid 166 μmol/L
T2 construct: purchased CrystalGenomics Ltd
Summary of the method: as §1

Hep3B cells = experiment: EPO production assay (ELISA of culture supernatant); type: cell-based; conditions: Homo sapiens, 3 μmol/L test compound, 48 hours, relative to control (0.1% DMSO), read-out: EPO production stimulation rate with 3 μmol/L test compound
Summary of the method: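 Hep3B cells (40000/well) switched to MEM with 0.5% FBS and treated with compound (0.1% DMSO) for 48 h at 37 °C. Supernatant EPO measured by ELISA; value is fold stimulation at 3 μmol/L compound over unstimulated control.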

T2 sequence (Q9H6Z9 whole entry): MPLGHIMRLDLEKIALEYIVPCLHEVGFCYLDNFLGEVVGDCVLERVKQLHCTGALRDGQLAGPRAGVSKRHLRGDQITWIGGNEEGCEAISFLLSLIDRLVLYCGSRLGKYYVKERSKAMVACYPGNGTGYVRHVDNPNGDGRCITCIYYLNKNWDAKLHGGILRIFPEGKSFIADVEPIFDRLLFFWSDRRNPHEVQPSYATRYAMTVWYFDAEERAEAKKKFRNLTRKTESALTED
T1 sequence (Q9GZT9 2-426 limits assumed): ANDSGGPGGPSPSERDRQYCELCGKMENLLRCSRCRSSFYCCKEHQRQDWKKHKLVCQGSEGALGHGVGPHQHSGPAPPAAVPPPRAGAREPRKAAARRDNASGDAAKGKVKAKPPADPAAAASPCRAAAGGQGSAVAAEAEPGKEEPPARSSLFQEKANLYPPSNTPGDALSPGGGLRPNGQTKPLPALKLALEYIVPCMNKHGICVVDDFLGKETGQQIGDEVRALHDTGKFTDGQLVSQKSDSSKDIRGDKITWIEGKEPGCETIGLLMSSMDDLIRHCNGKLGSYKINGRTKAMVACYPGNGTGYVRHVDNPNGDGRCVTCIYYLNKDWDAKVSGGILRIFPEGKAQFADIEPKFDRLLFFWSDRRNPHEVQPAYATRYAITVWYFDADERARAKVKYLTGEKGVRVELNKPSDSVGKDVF

SMILES: O=C(O)c1cnn(-c2nc(O)c3c(cnn3CCCOc3ccc4ccccc4c3)n2)c1 [Example 187]
IC50 (human HIF-PHD2): 12 nM | IC50 (human HIF-PHD3): 220 nM | fold induction at 3 µM (Hep3B cells): 10

SMILES: O=C(O)c1cnn(-c2nc(O)c3c(cnn3CCCOc3cccc4ccccc34)n2)c1 [Example 192]
IC50 (human HIF-PHD2): 28 nM | IC50 (human HIF-PHD3): 350 nM | fold induction at 3 µM (Hep3B cells): 3.5

SMILES: O=C(O)c1cnn(-c2nc(O)c3c(cnn3CCCOc3ccc(Cl)c4c3CCC4)n2)c1 [Example 194]
IC50 (human HIF-PHD2): 14 nM | IC50 (human HIF-PHD3): 53 nM | fold induction at 3 µM (Hep3B cells): 18

SMILES: O=C(O)c1cnn(-c2nc(O)c3c(cnn3CCCOc3ccc(-c4ccccc4)cc3)n2)c1 [Example 196]
IC50 (human HIF-PHD2): 20 nM | IC50 (human HIF-PHD3): 300 nM | fold induction at 3 µM (Hep3B cells): 25

SMILES: CC(C)(COc1ccc(Cl)cc1)Cn1ncc2nc(-n3cc(C(=O)O)cn3)nc(O)c21 [Example 197]
IC50 (human HIF-PHD2): 190 nM | IC50 (human HIF-PHD3): 760 nM | fold induction at 3 µM (Hep3B cells): 5.8

SMILES: O=C(O)c1cnn(-c2nc(O)c3c(cnn3CC3(COc4ccc(Cl)cc4)CC3)n2)c1 [Example 198]
IC50 (human HIF-PHD2): 89 nM | IC50 (human HIF-PHD3): 1200 nM | fold induction at 3 µM (Hep3B cells): 3.2

SMILES: O=C(O)c1cnn(-c2nc(O)c3c(cnn3CCOc3ccccc3C(F)(F)F)n2)c1 [Example 201]
IC50 (human HIF-PHD2): 130 nM | IC50 (human HIF-PHD3): 860 nM | fold induction at 3 µM (Hep3B cells): 3.2

SMILES: O=C(O)c1cnn(-c2nc(O)c3c(cnn3CCOc3cccc(C(F)(F)F)c3)n2)c1 [Example 202]
IC50 (human HIF-PHD2): 59 nM | IC50 (human HIF-PHD3): 300 nM | fold induction at 3 µM (Hep3B cells): 3.6

SMILES: O=C(O)c1cnn(-c2nc(O)c3c(cnn3CCOc3ccc(C(F)(F)F)cc3)n2)c1 [Example 203]
IC50 (human HIF-PHD2): 65 nM | IC50 (human HIF-PHD3): 170 nM | fold induction at 3 µM (Hep3B cells): 4.5

SMILES: CC(C)(C)c1ccc(OCCn2ncc3nc(-n4cc(C(=O)O)cn4)nc(O)c32)cc1 [Example 204]
IC50 (human HIF-PHD2): 19 nM | IC50 (human HIF-PHD3): 650 nM | fold induction at 3 µM (Hep3B cells): 12

SMILES: O=C(O)c1cnn(-c2nc(O)c3c(cnn3CCOc3ccc(-c4ccccc4)cc3)n2)c1 [Example 205]
IC50 (human HIF-PHD2): 13 nM | IC50 (human HIF-PHD3): 280 nM | fold induction at 3 µM (Hep3B cells): 20

SMILES: O=C(O)c1cnn(-c2nc(O)c3c(cnn3CCOc3cccc4ccccc34)n2)c1 [Example 206]
IC50 (human HIF-PHD2): 32 nM | IC50 (human HIF-PHD3): 510 nM | fold induction at 3 µM (Hep3B cells): 2.2

SMILES: O=C(O)c1cnn(-c2nc(O)c3c(cnn3CCOc3ccc4ccccc4c3)n2)c1 [Example 207]
IC50 (human HIF-PHD2): 13 nM | IC50 (human HIF-PHD3): 160 nM | fold induction at 3 µM (Hep3B cells): 2.5

SMILES: CC(C)(Cn1ncc2nc(-n3cc(C(=O)O)cn3)nc(O)c21)Oc1ccccc1Cl [Example 209]
IC50 (human HIF-PHD2): 33 nM | IC50 (human HIF-PHD3): 230 nM | fold induction at 3 µM (Hep3B cells): 2.2

SMILES: CC(C)(Cn1ncc2nc(-n3cc(C(=O)O)cn3)nc(O)c21)Oc1ccc(Cl)cc1 [Example 210]
IC50 (human HIF-PHD2): 21 nM | IC50 (human HIF-PHD3): 220 nM | fold induction at 3 µM (Hep3B cells): 19

SMILES: Cc1ccc(OC(C)(C)Cn2ncc3nc(-n4cc(C(=O)O)cn4)nc(O)c32)c2c1CCC2 [Example 211]
IC50 (human HIF-PHD2): 26 nM | IC50 (human HIF-PHD3): 180 nM | fold induction at 3 µM (Hep3B cells): 8.9

SMILES: CC(C)(Cn1ncc2nc(-n3cc(C(=O)O)cn3)nc(O)c21)Oc1cccc2ccccc12 [Example 212]
IC50 (human HIF-PHD2): 26 nM | IC50 (human HIF-PHD3): 310 nM | fold induction at 3 µM (Hep3B cells): 2.7

SMILES: CC(C)(Cn1ncc2nc(-n3cc(C(=O)O)cn3)nc(O)c21)Oc1ccc2ccccc2c1 [Example 213]
IC50 (human HIF-PHD2): 17 nM | IC50 (human HIF-PHD3): 110 nM | fold induction at 3 µM (Hep3B cells): 6.4

SMILES: O=C(O)c1cnn(-c2nc(O)c3c(cnn3CCCCOc3ccc(F)cc3)n2)c1 [Example 215]
IC50 (human HIF-PHD2): 14 nM | IC50 (human HIF-PHD3): 290 nM | fold induction at 3 µM (Hep3B cells): 6.7

SMILES: Cc1nn(Cc2ccc(-c3ccccc3)cc2)c2c(O)nc(-n3cc(C(=O)O)cn3)nc12 [Example 228]
IC50 (human HIF-PHD2): 10 nM | IC50 (human HIF-PHD3): 68 nM | fold induction at 3 µM (Hep3B cells): 3.9

SMILES: O=C(O)c1cnn(-c2nc(O)c3nn(Cc4ccc(Cl)c(Cl)c4)cc3n2)c1 [Example 235]
IC50 (human HIF-PHD2): 3 nM | IC50 (human HIF-PHD3): 13 nM | fold induction at 3 µM (Hep3B cells): 1.9

SMILES: COc1ccc(Cn2cc3nc(-n4cc(C(=O)O)cn4)nc(O)c3n2)cc1 [Example 236]
IC50 (human HIF-PHD2): 11 nM | IC50 (human HIF-PHD3): 77 nM | fold induction at 3 µM (Hep3B cells): 0.91

SMILES: O=C(O)c1cnn(-c2nc(O)c3nn(Cc4cc(C(F)(F)F)cc(Cl)c4F)cc3n2)c1 [Example 238]
IC50 (human HIF-PHD2): 10 nM | IC50 (human HIF-PHD3): 770 nM | fold induction at 3 µM (Hep3B cells): 0.7

Now from value to compound, other results behind:

IC50 (human HIF-PHD2): 14 nM | IC50 (human HIF-PHD3): 540 nM
SMILES: O=C(O)c1cnn(-c2nc(O)c3c(cnn3CCCOc3ccc4c(c3)CCCC4)n2)c1 [Example 188]
fold induction at 3 µM (Hep3B cells): 23

IC50 (human HIF-PHD2): 20 nM | IC50 (human HIF-PHD3): 150 nM
SMILES: Cc1cc2c(cc1OCCCn1ncc3nc(-n4cc(C(=O)O)cn4)nc(O)c31)CCCC2 [Example 189]
fold induction at 3 µM (Hep3B cells): 8.7

IC50 (human HIF-PHD2): 130 nM | IC50 (human HIF-PHD3): 540 nM
SMILES: O=C(O)c1cnn(-c2nc(O)c3c(cnn3CCCOc3ccc4c(c3C3CC3)CCCC4)n2)c1 [Example 191]
fold induction at 3 µM (Hep3B cells): 1.6

IC50 (human HIF-PHD2): 85 nM | IC50 (human HIF-PHD3): 190 nM
SMILES: O=C(O)c1cnn(-c2nc(O)c3c(cnn3CCCOc3cccc4c3CCCC4)n2)c1 [Example 193]
fold induction at 3 µM (Hep3B cells): 9.8

IC50 (human HIF-PHD2): 130 nM | IC50 (human HIF-PHD3): 1100 nM
SMILES: O=C(O)c1cnn(-c2nc(O)c3c(cnn3CC3(COc4ccc5c(c4)CCCC5)CC3)n2)c1 [Example 199]
fold induction at 3 µM (Hep3B cells): 5

IC50 (human HIF-PHD2): 12 nM | IC50 (human HIF-PHD3): 1800 nM
SMILES: O=C(O)c1cnn(-c2nc(O)c3c(cnn3CCOc3ccccc3)n2)c1 [Example 200]
fold induction at 3 µM (Hep3B cells): 1.4

IC50 (human HIF-PHD2): 14 nM | IC50 (human HIF-PHD3): 240 nM
SMILES: O=C(O)c1cnn(-c2nc(O)c3c(cnn3CCOc3ccc4c(c3)CCCC4)n2)c1 [Example 208]
fold induction at 3 µM (Hep3B cells): 7.1

IC50 (human HIF-PHD2): 17 nM | IC50 (human HIF-PHD3): 220 nM
SMILES: CC(C)(Cn1ncc2nc(-n3cc(C(=O)O)cn3)nc(O)c21)Oc1ccc2c(c1)CCCC2 [Example 214]
fold induction at 3 µM (Hep3B cells): 6.8

IC50 (human HIF-PHD2): 15 nM | IC50 (human HIF-PHD3): 300 nM
SMILES: O=C(O)c1cnn(-c2nc(O)c3c(n2)c(F)nn3Cc2ccc3ccccc3c2)c1 [Example 216]
fold induction at 3 µM (Hep3B cells): 1.5

IC50 (human HIF-PHD2): 32 nM | IC50 (human HIF-PHD3): 920 nM
SMILES: O=C(O)c1cnn(-c2nc(O)c3c(n2)c(F)nn3CC2CCCCC2)c1 [Example 217]
fold induction at 3 µM (Hep3B cells): 2.4

IC50 (human HIF-PHD2): 15 nM | IC50 (human HIF-PHD3): 750 nM
SMILES: C[C@H]1CC[C@H](Cn2nc(F)c3nc(-n4cc(C(=O)O)cn4)nc(O)c32)CC1 [Example 218]
fold induction at 3 µM (Hep3B cells): 3

IC50 (human HIF-PHD2): 14 nM | IC50 (human HIF-PHD3): 340 nM
SMILES: O=C(O)c1cnn(-c2nc(O)c3c(n2)c(Cl)nn3Cc2ccc(Br)cc2)c1 [Example 220]
fold induction at 3 µM (Hep3B cells): 4

IC50 (human HIF-PHD2): 48 nM | IC50 (human HIF-PHD3): 450 nM
SMILES: O=C(O)c1cnn(-c2nc(O)c3c(n2)c(Cl)nn3CC2CCCCC2)c1 [Example 222]
fold induction at 3 µM (Hep3B cells): 1.5

IC50 (human HIF-PHD2): 28 nM | IC50 (human HIF-PHD3): 950 nM
SMILES: C[C@H]1CC[C@H](Cn2nc(Cl)c3nc(-n4cc(C(=O)O)cn4)nc(O)c32)CC1 [Example 223]
fold induction at 3 µM (Hep3B cells): 3.2

IC50 (human HIF-PHD2): 11 nM | IC50 (human HIF-PHD3): 91 nM
SMILES: CC(C)[C@H]1CC[C@H](Cn2nc(Cl)c3nc(-n4cc(C(=O)O)cn4)nc(O)c32)CC1 [Example 224]
fold induction at 3 µM (Hep3B cells): 8.4

IC50 (human HIF-PHD2): 47 nM | IC50 (human HIF-PHD3): 1400 nM
SMILES: O=C(O)c1cnn(-c2nc(O)c3c(n2)c(Cl)nn3CC2CCCCCC2)c1 [Example 226]
fold induction at 3 µM (Hep3B cells): 2.2

IC50 (human HIF-PHD2): 91 nM | IC50 (human HIF-PHD3): 660 nM
SMILES: O=C(O)c1cnn(-c2nc(O)c3c(n2)c(C2CC2)nn3CC2CCCCC2)c1 [Example 234]
fold induction at 3 µM (Hep3B cells): 5.7

Reference: patent publication US20150239889A1, “PYRAZOLOPYRIMIDINE COMPOUND” (MITSUBISHI TANABE PHARMA CORPORATION, priority 2012, published 2015)
